This note sets out measurements from ChEMBL document CHEMBL1122453, “Structure-activity relationships in the antiinflammatory steroids: a pattern-recognition approach” (1983).

For this test, the species on record is Homo sapiens. Briefly: Potency relative to fluocinolone 16,17-acetonide in the human vasoconstictor test. In kind it is functional.

`CCC(=O)OCC(=O)[C@@]1(OC(=O)CC)CCC2C3C[C@H](F)C4=CC(=O)C=CC4(C)[C@@]3(F)C(O)CC21C` (some centres undefined) returned a Potency of 853.

The compound `CCCC(=O)O[C@]1(C(=O)COC(C)=O)CC[C@H]2[C@@H]3C[C@H](F)C4=CC(=O)C=C[C@]4(C)[C@@]3(F)[C@@H](O)C[C@@]21C` [DIFLUPREDNATE] gave a Potency of 1170.

With `CCCCC(=O)O[C@]1(C(=O)COC(C)=O)CCC2C3C[C@H](F)C4=CC(=O)C=CC4(C)[C@@]3(F)C(O)CC21C` (some centres undefined), the Potency stood at 720. In the case of `CC(=O)O[C@]1(C(=O)O)[C@@H](C)CC2C3CCC4=CC(=O)C=CC4(C)C3(F)[C@@H](O)CC21C` (some centres undefined) it was <1; in that of `CC(C)C(=O)O[C@]1(C(=O)CO)C(C)CC2C3CCC4=CC(=O)C=CC4(C)[C@@]3(F)C(O)CC21C` (some centres undefined), 470; in that of `CCCCC(=O)O[C@]1(C(=O)CO)CCC2C3CCC4=CC(=O)C=CC4(C)C3C(O)CC21C` (some centres undefined), <1. The figure for `CCC(=O)O[C@]1(C(=O)COC(=O)C(C)C)CCC2C3C[C@H](F)C4=CC(=O)C=CC4(C)[C@@]3(F)C(O)CC21C` (some centres undefined) is 1080. In the case of `CC(=O)OCC(=O)[C@@]1(OC(=O)C(C)C)CCC2C3C[C@H](F)C4=CC(=O)C=CC4(C)[C@@]3(F)C(O)CC21C` (some centres undefined) it was 720; in that of `CCCCC(=O)O[C@]1(C(=O)COC(C)=O)CC[C@H]2[C@@H]3C[C@H](F)C4=CC(=O)CC[C@]4(C)[C@@]3(F)[C@@H](O)C[C@@]21C`, 360. Compound `CC(C)C(=O)OCC(=O)[C@@]1(O)C(C)CC2C3CCC4=CC(=O)C=CC4(C)[C@@]3(F)C(O)CC21C` (some centres undefined) displayed a Potency of 90. The figure for `CCCCC(=O)O[C@]1(C(=O)CCl)[C@@H](C)C[C@H]2[C@@H]3CCC4=CC(=O)C=C[C@]4(C)[C@@]3(F)[C@@H](O)C[C@@]21C` is 91. In the case of `C[C@@H]1CC2C3CCC4=CC(=O)C=CC4(C)[C@@]3(F)C(O)CC2(C)[C@@]1(O)C(=O)COP(=O)(O)O` (some centres undefined) it was 2; in that of `CCC(=O)OCC(=O)[C@@]1(OC(=O)CC)[C@@H](C)C[C@H]2[C@@H]3CCC4=CC(=O)C=C[C@]4(C)[C@@]3(Cl)[C@@H](O)C[C@@]21C` [BECLOMETHASONE DIPROPIONATE], 500; in that of `CC(=O)OCC(=O)[C@@]12OC(C)(C)O[C@@H]1C[C@H]1[C@@H]3C[C@H](F)C4=CC(=O)C=C[C@]4(C)[C@@]3(F)[C@@H](O)C[C@@]12C` [FLUOCINONIDE], 300. With `CCC(=O)OCC(=O)[C@@]1(O)[C@@H](C)C[C@H]2[C@@H]3CCC4=CC(=O)C=C[C@]4(C)[C@@]3(F)[C@@H](O)C[C@@]21C`, the Potency is reported as 40.

Turning to `CCCC(=O)OCC(=O)[C@@]1(OC(=O)CCC)CC[C@H]2[C@@H]3C[C@H](F)C4=CC(=O)C=C[C@]4(C)[C@@]3(F)[C@@H](O)C[C@@]21C`, the Potency was 540. `CC(=O)OCC(=O)[C@@]1(O)[C@@H](C)C[C@H]2[C@@H]3CCC4=CC(=O)C=C[C@]4(C)[C@@]3(F)[C@@H](O)C[C@@]21C` [BETAMETHASONE ACETATE]: the Potency is reported as 18. The figure for `CCCOC(=O)[C@@]1(OC(=O)CC)[C@@H](C)CC2C3CCC4=CC(=O)C=CC4(C)C3(F)[C@@H](O)CC21C` (some centres undefined) is 30. `CCC(=O)OCC(=O)[C@@]1(OC(=O)CC)[C@@H](C)C[C@H]2[C@@H]3CCC4=CC(=O)C=C[C@]4(C)[C@@]3(F)[C@@H](O)C[C@@]21C` [BETAMETHASONE DIPROPIONATE] registered a Potency of 1300. The compound `CCCC(=O)O[C@]1(C(=O)COC(=O)CC)CCC2C3C[C@H](F)C4=CC(=O)C=CC4(C)[C@@]3(F)C(O)CC21C` (some centres undefined) yielded a Potency of 1058. With `CCC(=O)O[C@]1(C(=O)CO)CCC2C3C[C@H](F)C4=CC(=O)C=CC4(C)[C@@]3(F)C(O)CC21C` (some centres undefined), the Potency was <360. On to `CCC(=O)O[C@]1(C(=O)CO)[C@@H](C)C[C@H]2[C@@H]3CCC4=CC(=O)C=C[C@]4(C)[C@@]3(Cl)[C@@H](O)C[C@@]21C` [BECLOMETHASONE 17-MONOPROPIONATE], for which the Potency is 360. Take `C[C@@H]1C[C@H]2[C@@H]3C[C@H](F)C4=CC(=O)C=C[C@]4(C)[C@@]3(F)[C@@H](O)C[C@]2(C)[C@@]1(O)C(=O)COC(=O)C(C)(C)C` [FLUMETHASONE PIVALATE]: the Potency is listed as 360. The compound `CCC(=O)O[C@]1(C(C)=O)C(C)CC2C3CCC4=CC(=O)C=CC4(C)[C@@]3(F)C(O)CC21C` (some centres undefined) yielded a Potency of 1170. `CCCC(=O)OCC(=O)[C@@]1(O)C(C)CC2C3CCC4=CC(=O)C=CC4(C)[C@@]3(F)C(O)CC21C` (some centres undefined) registered a Potency of 85.

`CCC(=O)O[C@]1(C(=O)COC(C)=O)CCC2C3C[C@H](F)C4=CC(=O)C=CC4(C)[C@@]3(F)C(O)CC21C` (some centres undefined) had a Potency of 1080. In the case of `CC1CC2C3CCC4=CC(=O)C=CC4(C)[C@@]3(Cl)C(O)CC2(C)[C@@]1(O)C(=O)CO` (some centres undefined) it was 0.8; in that of `CCCC(=O)OCC(=O)[C@@]1(OC(=O)CC)CCC2C3C[C@H](F)C4=CC(=O)C=CC4(C)[C@@]3(F)C(O)CC21C` (some centres undefined), 1260. The figure for `CCC(=O)OCC(=O)[C@@]1(OC(=O)C(C)C)CCC2C3C[C@H](F)C4=CC(=O)C=CC4(C)[C@@]3(F)C(O)CC21C` (some centres undefined) is 900; for `CCC(=O)O[C@]1(C(C)=O)CCC2C3C[C@H](F)C4=CC(=O)C=CC4(C)[C@@]3(F)C(O)CC21C` (some centres undefined) it is 900; for `CCC(=O)O[C@]1(C(=O)CO)[C@@H](C)C[C@H]2[C@@H]3CCC4=CC(=O)C=C[C@]4(C)[C@@]3(F)[C@@H](O)C[C@@]21C` it is 190. `CCC(=O)O[C@]1(C(=O)CCl)[C@@H](C)C[C@H]2[C@@H]3CCC4=CC(=O)C=C[C@]4(C)[C@@]3(F)[C@@H](O)C[C@@]21C` [CLOBETASOL PROPIONATE]: the Potency is listed as 1869. The figure for `CCCCC(=O)O[C@]1(C(=O)CO)CCC2C3C[C@H](F)C4=CC(=O)C=CC4(C)[C@@]3(F)C(O)CC21C` (some centres undefined) is 360; for `CC(=O)O[C@]1(C(C)=O)CCC2C3C[C@H](F)C4=CC(=O)C=CC4(C)[C@@]3(F)C(O)CC21C` (some centres undefined) it is 540. The compound `CCOC(=O)[C@@]1(OC(=O)CC)[C@@H](C)CC2C3CCC4=CC(=O)C=CC4(C)[C@@]3(F)[C@@H](O)CC21C` (some centres undefined) had a Potency of 75. `CCCC(=O)O[C@]1(C(=O)COC(=O)C(C)C)CCC2C3C[C@H](F)C4=CC(=O)C=CC4(C)[C@@]3(F)C(O)CC21C` (some centres undefined) registered a Potency of 1080. Compound `CC(=O)O[C@]1(C(=O)CCl)[C@@H](C)CC2C3CCC4=CC(=O)C=CC4(C)[C@@]3(F)[C@@H](O)CC21C` (some centres undefined) displayed a Potency of 812. The figure for `CCCC(=O)O[C@]1(C(=O)CO)CCC2C3C[C@H](F)C4=CC(=O)C=CC4(C)[C@@]3(F)C(O)CC21C` (some centres undefined) is <360. The figure for `CC(=O)O[C@]1(C(=O)COC(=O)C(C)C)CCC2C3C[C@H](F)C4=CC(=O)C=CC4(C)[C@@]3(F)C(O)CC21C` (some centres undefined) is 720; for `CCC(=O)O[C@]1(C(=O)COC(=O)C(C)(C)C)CCC2C3C[C@H](F)C4=CC(=O)C=CC4(C)[C@@]3(F)C(O)CC21C` (some centres undefined) it is 720. In the case of `C[C@]12C=CC(=O)C=C1CC[C@@H]1[C@@H]2[C@@H](O)C[C@@]2(C)[C@H]1CC[C@]2(O)C(=O)COP(=O)(O)O` [PREDNISOLONE PHOSPHORIC ACID] it was 0.1. Compound `CC(=O)OCC(=O)[C@@]1(O)[C@H](C)C[C@H]2[C@@H]3CCC4=CC(=O)C=C[C@]4(C)[C@@]3(F)[C@@H](O)C[C@@]21C` [DEXAMETHASONE ACETATE] showed a Potency of 8.

As for `CC12C=CC(=O)C=C1[C@@H](F)CC1C3CC[C@](O)(C(=O)CO)C3(C)CC(O)[C@@]12F` (some centres undefined), the Potency is listed as <360.

In turn, `CC(=O)O[C@]1(C(=O)CO)C(C)CC2C3CCC4=CC(=O)C=CC4(C)[C@@]3(F)C(O)CC21C` (some centres undefined) came in with a Potency of 114. The compound `CC(C)C(=O)OCC(=O)[C@@]1(OC(=O)C(C)C)CCC2C3C[C@H](F)C4=CC(=O)C=CC4(C)[C@@]3(F)C(O)CC21C` (some centres undefined) came in with a Potency of 720.

The compound `CCCCC(=O)O[C@]1(C(=O)CO)CCC2C3C[C@H](F)C4=CC(=O)CCC4(C)[C@@]3(F)C(O)CC21C` (some centres undefined) gave a Potency of 360. In the case of `CCCC(=O)OC1(C(=O)CCl)[C@@H](C)CC2C3CCC4=CC(=O)C=C[C@]4(C)[C@@]3(F)[C@@H](O)C[C@@]21C` (some centres undefined) it was 1166. The figure for `C[C@]12C=CC(=O)C=C1[C@@H](F)C[C@@H]1[C@@H]2[C@@H](O)C[C@@]2(C)[C@H]1CC[C@]2(O)C(=O)CO` [FLUPREDNISOLONE] is 1; for `COC(=O)[C@@]1(OC(C)=O)[C@@H](C)CC2C3CCC4=CC(=O)C=CC4(C)[C@@]3(F)[C@@H](O)CC21C` (some centres undefined) it is 385; for `CCCC(=O)O[C@]1(C(=O)OCC)[C@@H](C)CC2C3CCC4=CC(=O)C=CC4(C)C3(F)[C@@H](O)CC21C` (some centres undefined) it is 40. The figure for `CCCOC(=O)[C@@]1(OC(=O)CCC)[C@@H](C)CC2C3CCC4=CC(=O)C=CC4(C)C3(F)[C@@H](O)CC21C` (some centres undefined) is 40; for `CC(C)C(=O)O[C@]1(C(=O)CO)CCC2C3C[C@H](F)C4=CC(=O)C=CC4(C)[C@@]3(F)C(O)CC21C` (some centres undefined) it is <360. In turn, `CCCC(=O)O[C@]1(C(=O)OC)[C@@H](C)CC2C3CCC4=CC(=O)C=CC4(C)[C@@]3(F)[C@@H](O)CC21C` (some centres undefined) displayed a Potency of 175.

As to `C[C@H]1C[C@H]2C3CCC4=CC(=O)C=C[C@]4(C)[C@@]3(F)[C@@H](O)C[C@]2(C)[C@@]1(O)C(=O)O` (some centres undefined), the Potency is recorded as <1. The figure for `CC12CCC(=O)C=C1CCC1C2C(O)CC2(C)C1CC[C@]2(O)C(=O)COP(=O)(O)O` (some centres undefined) is 0.01; for `CCCCC(=O)OCC(=O)[C@@]1(O)C(C)CC2C3CCC4=CC(=O)C=CC4(C)[C@@]3(F)C(O)CC21C` (some centres undefined) it is 26. Take `CCOC(=O)[C@@]1(OC(C)=O)[C@@H](C)CC2C3CCC4=CC(=O)C=CC4(C)C3(F)[C@@H](O)CC21C` (some centres undefined): the Potency stood at 16. As for `CCC(=O)O[C@]1(C(=O)OCCl)[C@@H](C)CC2C3CCC4=CC(=O)C=CC4(C)[C@@]3(F)[C@@H](O)CC21C` (some centres undefined), the Potency is 400. For `CCCOC(=O)[C@@]1(O)[C@@H](C)CC2C3CCC4=CC(=O)C=CC4(C)C3(F)[C@@H](O)CC21C` (some centres undefined), the Potency worked out at 5.
